Test results: PMC10691846 (Protein & Cell, 2023)

B1: Escherichia coli CydC (natural protein)
chain: MRALLPYLALYKRHKWMLSLGIVLAIVTLLASIGLLTLSGWFLSASAVAGVAGLYSFNYMLPAAGVRGAAITRTAGRYFERLVSHDATFRVLQHLRIYTFSKLLPLSPAGLARYRQGELLNRVVADVDTLDHLYLRVISPLVGAFVVIMVVTIGLSFLDFTLAFTLGGIMLLTLFLMPPLFYRAGKSTGQNLTHLRGQYRQQLTAWLQGQAELTIFGASDRYRTQLENTEIQWLEAQRRQSELTALSQAIMLLIGALAVILMLWMASGGVGGNAQPGALIALFVFCALAAFEALAPVTGAFQHLGQVIASAVRISDLTDQKPEVTFPDTQTRVADRVSLTLRDVQFTYPEQSQQALKGISLQVNAGEHIAILGRTGCGKSTLLQQLTRAWDPQQGEILLNDSPIASLNEAALRQTISVVPQRVHLFSATLRDNLLLASPGSSDEALSEILRRVGLEKLLEDAGLNSWLGEGGRQLSGGELRRLAIARALLHDAPLVLLDEPTEGLDATTESQILELLAEMMREKTVLMVTHRLRGLSRFQQIIVMDNGQIIEQGTHAELLARQGRYYQFKQGL
notes: CydC, subunit of the ABC transporter CydDC of Escherichia coli; also called EcCydC; source: purified as the EcCydDC complex

Assays:
EcCydDC = biological target: T1, EcCydDC (Escherichia coli, UniProt P23886+P29018); test: cryo-EM structure of the complex; format: binding; conditions: ATP-bound occluded state
T1 construct: gene cydC; purified CydC-CydD heterodimer

MsCydDC [1] = biological target: T2, MsCydDC (Mycolicibacterium smegmatis, UniProt A0QXA6+A4ZHS8); test: ATPase activity assay; format: biochemical; conditions: Arg326 of CydC Linking-beta2 Loop sandwiches the adenosine ring at the CydC NBD
T2 construct: gene MSMEG3240; purified CydC-CydD heterodimer

MsCydDC [2] = biological target: T2, MsCydDC; test: ATPase activity assay; format: biochemical; conditions: Arg85 of CydD ICL1 stabilizes the adenosine ring at the CydD NBD
MsCydDC [3] = biological target: T2, MsCydDC; test: cryo-EM structure of the complex; format: binding; conditions: Mg2+; ATP in the NBDs of CydC and CydD; outward-facing state
MsCydDC [4] = biological target: T2, MsCydDC; test: ATPase activity assay; format: biochemical; conditions: Arg324 of CydC Linking-beta2 Loop sandwiches the adenosine ring at the CydC NBD
Escherichia coli CydD = biological target: T3, Escherichia coli CydD (Escherichia coli, UniProt P29018 1-588); test: cryo-EM structure; purified CydDC complexes; MsCydDC in apo and ATP-bound states, EcCydDC in heme-loading and ATP-bound states; conditions: both partners purified
T3 construct: CydD, subunit of the ABC transporter CydDC of Escherichia coli; also called EcCydD; source: purified as the EcCydDC complex
T3 sequence: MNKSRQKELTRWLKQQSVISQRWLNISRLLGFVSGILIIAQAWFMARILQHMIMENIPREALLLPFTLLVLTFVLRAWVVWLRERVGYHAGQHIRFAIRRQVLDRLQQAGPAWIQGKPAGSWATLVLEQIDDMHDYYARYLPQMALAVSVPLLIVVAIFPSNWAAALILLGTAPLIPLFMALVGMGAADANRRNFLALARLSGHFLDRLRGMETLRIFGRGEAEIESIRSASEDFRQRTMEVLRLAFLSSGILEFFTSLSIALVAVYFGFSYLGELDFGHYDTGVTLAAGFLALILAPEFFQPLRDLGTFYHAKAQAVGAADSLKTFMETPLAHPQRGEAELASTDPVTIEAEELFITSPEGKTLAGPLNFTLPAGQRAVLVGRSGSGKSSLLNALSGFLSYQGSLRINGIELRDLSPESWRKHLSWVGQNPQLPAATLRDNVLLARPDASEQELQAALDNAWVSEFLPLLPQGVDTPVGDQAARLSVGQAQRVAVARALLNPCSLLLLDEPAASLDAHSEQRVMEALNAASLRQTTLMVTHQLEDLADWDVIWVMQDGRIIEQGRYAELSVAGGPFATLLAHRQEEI

T2 sequence (A0QXA6 entry or part of it): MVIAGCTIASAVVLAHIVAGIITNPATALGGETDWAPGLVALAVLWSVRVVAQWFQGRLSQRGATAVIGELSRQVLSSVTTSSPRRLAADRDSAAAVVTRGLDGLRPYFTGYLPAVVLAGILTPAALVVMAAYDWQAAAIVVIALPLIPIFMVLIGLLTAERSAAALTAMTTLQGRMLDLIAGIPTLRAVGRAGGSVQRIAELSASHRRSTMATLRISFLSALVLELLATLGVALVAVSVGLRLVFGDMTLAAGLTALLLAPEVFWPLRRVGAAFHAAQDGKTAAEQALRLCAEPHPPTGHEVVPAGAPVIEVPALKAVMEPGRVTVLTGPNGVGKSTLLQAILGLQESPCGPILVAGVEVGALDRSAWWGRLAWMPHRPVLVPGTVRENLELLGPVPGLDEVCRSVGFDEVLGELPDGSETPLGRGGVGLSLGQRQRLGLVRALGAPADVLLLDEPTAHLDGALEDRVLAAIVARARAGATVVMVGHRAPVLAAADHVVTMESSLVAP
T2 sequence (A4ZHS8 entry or part of it): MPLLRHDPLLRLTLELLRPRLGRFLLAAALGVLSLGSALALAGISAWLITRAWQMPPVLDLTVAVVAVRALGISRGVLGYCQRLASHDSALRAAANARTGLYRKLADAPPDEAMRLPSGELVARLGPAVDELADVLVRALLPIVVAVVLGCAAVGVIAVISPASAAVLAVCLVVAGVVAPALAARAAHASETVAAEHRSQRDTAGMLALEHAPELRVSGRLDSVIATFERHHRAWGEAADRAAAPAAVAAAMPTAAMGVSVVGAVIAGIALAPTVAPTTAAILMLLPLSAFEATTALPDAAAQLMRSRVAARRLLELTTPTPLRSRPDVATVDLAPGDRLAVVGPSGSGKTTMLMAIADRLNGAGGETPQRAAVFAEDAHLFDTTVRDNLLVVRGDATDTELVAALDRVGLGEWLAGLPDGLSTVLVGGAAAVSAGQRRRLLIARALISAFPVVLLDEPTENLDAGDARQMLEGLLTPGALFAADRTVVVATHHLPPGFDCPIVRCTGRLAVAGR

binding result (Escherichia coli CydD)	Molecule	cryo-EM structure of the complex (EcCydDC)	ATPase activity (MsCydDC [1])	ATPase activity (MsCydDC [2])	cryo-EM structure of the complex (MsCydDC [3])	ATPase activity (MsCydDC [4])
	Nc1ncnc2c1ncn2[C@@H]1O[C@H](COP(=O)(O)OP(=O)(O)OP(=O)(O)O)[C@@H](O)[C@H]1O [ATP]	We then determined the Cryo-EM structures of CydDC from Msm or E. coli	a single mutation of any of these Arg residues significantly affected the ATPase activity	a single mutation of any of these Arg residues significantly affected the ATPase activity	the adenosine ring of ATP is stabilized by the sidechain of Arg85 from ICL1	a single mutation of any of these Arg residues significantly affected the ATPase activity
binds	B1					
